Converted amounts (≈) assume the structure as drawn. Like-named read-outs stand apart in the source and are kept apart here.
Assays:
Assay in all cases: Bacterial susceptibility testing (MIC, broth microdilution)
Type in all cases: cell-based
[1] = tested on: P. aeruginosa 209
Description: (§1) Minimal inhibitory concentrations (MIC) were determined by the broth microdilution method in accordance with the Clinical and Laboratory Standards Institute (CLSI) guidelines. In brief, organism suspensions were adjusted to a 0.5 McFarland standard to yield a final inoculum between 3×10^5 and 7×10^5 colony-forming units (CFU)/mL. Drug dilutions and inocula were made in sterile, cation adjusted Mueller-Hinton Broth (Beckton Dickinson). An inoculum volume of 100 μL was added to wells containing 100 μL of broth with 2-fold serial dilutions of drug. All inoculated microdilution trays were incubated in ambient air at 35° C. for 18-24 h. […] Performance of the assay was monitored by the use of laboratory quality-control strains and levofloxacin, a compound with a defined MIC spectrum, in accordance with CLSI guidelines.

[2] = tested on: S. aureus ATCC 29213; conditions: Staphylococcus aureus
Description: as §1

[3] = tested on: P. aeruginosa 210 delta mexAB-OprM; conditions: Pseudomonas aeruginosa, read-out: MIC P. aeruginosa 210 delta mexAB-OprM
Description: as §1

[4] = tested on: E. coli BW25113; conditions: Escherichia coli, no FBS, 35° C., 18-24 h
Description: as §1

[5] = tested on: E. coli imp mutant; conditions: Escherichia coli, read-out: MIC E. coli imp mutant
Description: as §1

[6] = tested on: E. coli ATCC 25922; conditions: Escherichia coli
Description: as §1

[7] = tested on: E. coli delta tolC; conditions: Escherichia coli, 24 h, read-out: MIC E. coli delta tolC
Description: as §1

[8] = Pseudomonas aeruginosa, 209, broth microdilution, 35° C., 18-24 h, read-out: MIC P. aeruginosa 209
[9] = ATCC29213, broth microdilution, 35° C., 18-24 h, read-out: MIC S. aureus ATCC 29213
[10] = ATCC25922, no FBS, broth microdilution, 35° C., 18-24 h, read-out: MIC E. coli ATCC 25922-no FBS
[11] = Pseudomonas aeruginosa, 209, read-out: MIC P. aeruginosa 209
[12] = ATCC29213, read-out: MIC S. aureus ATCC 29213
[13] = ATCC25922, read-out: MIC E. coli ATCC 25922-no FBS

| Compound | MIC [1, 8] [µg/mL] | MIC [2, 9] [µg/mL] | MIC [3] [µg/mL] | MIC [4] [µg/mL] | MIC [5] [µg/mL] | MIC [6, 10] [µg/mL] | MIC [7] [µg/mL] | MIC [1, 11] [µg/mL] | MIC [2, 12] [µg/mL] | MIC [6, 13] [µg/mL] |
| --- | --- | --- | --- | --- | --- | --- | --- | --- | --- | --- |
| O=C(NCCN1CCOCC1)c1ccc(C#CC#Cc2ccc(NCc3occc(=O)c3O)cc2)cc1 [Compound 46] | > 32 | > 32 | > 32 | 1 to 8 (≈ 2.01 to 16.1 µM) | 1 to 8 (≈ 2.01 to 16.1 µM) | 8 to 32 (≈ 16.1 to 64.3 µM) | < 1 |  |  |  |
| O=C(O)c1ccc(C#Cc2ccc(NCc3occc(=O)c3O)cc2)cc1 [Compound 53] | > 32 | > 32 | > 32 | > 32 | > 32 | > 32 | 1 to 8 (≈ 2.77 to 22.1 µM) |  |  |  |
| O=c1cc(CNc2ccc(C#CC#Cc3ccccc3)cc2)occ1O [Compound 30] | > 32 | 8 to 32 (≈ 23.4 to 93.7 µM) | > 32 | > 32 | 1 to 8 (≈ 2.93 to 23.4 µM) | > 32 | > 32 |  |  |  |
| CNC(=O)C#CC#Cc1ccc(NCc2oc(CS(C)(=O)=O)cc(=O)c2O)cc1 [Compound 6, 5-(4-(((3-hydroxy-6-((methylsulfonyl)methyl)-4-oxo-4H-pyran-2-yl)methyl)amino)phenyl)-N-methylpenta-2,4-diynamide] |  |  | > 32 | > 32 | > 32 |  | > 32 | > 32 | > 32 | > 32 |
| CNC(=O)c1ccc(-c2ccc(OCc3oc(CS(C)(=O)=O)cc(=O)c3O)cc2)cc1 [Compound 8, 4′-((3-hydroxy-6-((methylsulfonyl)methyl)-4-oxo-4H-pyran-2-yl)methoxy)-N-methyl-[1,1′-biphenyl]-4-carboxamide] |  |  | > 32 | > 32 | > 32 |  | > 32 | > 32 | > 32 | > 32 |
| O=C(c1ccc(C#CC#Cc2ccc(NCc3occc(=O)c3O)cc2)cc1)N1CCN2CCCC2C1 (stereo not shown) [Compound 43] | > 32 | > 32 | 8 to 32 (≈ 16.2 to 64.8 µM) | 1 to 8 (≈ 2.03 to 16.2 µM) | 1 to 8 (≈ 2.03 to 16.2 µM) | 1 to 8 (≈ 2.03 to 16.2 µM) | < 1 |  |  |  |
| O=C(NCCO)c1ccc(C#CC#Cc2ccc(NCc3occc(=O)c3O)cc2)cc1 [Compound 44] | > 32 | > 32 | 8 to 32 (≈ 18.7 to 74.7 µM) | 1 to 8 (≈ 2.33 to 18.7 µM) | < 1 | 1 to 8 (≈ 2.33 to 18.7 µM) | < 1 |  |  |  |
| O=C(NC1CC1)c1ccc(C#CC#Cc2ccc(NCc3occc(=O)c3O)cc2)cc1 [Compound 34] | > 32 | > 32 | > 32 | 1 to 8 (≈ 2.36 to 18.8 µM) | 1 to 8 (≈ 2.36 to 18.8 µM) | 1 to 8 (≈ 2.36 to 18.8 µM) | < 1 |  |  |  |
| CNC(=O)c1ccc(-c2ccc(CCc3oc(CS(C)(=O)=O)cc(=O)c3O)cc2)cc1 [Compound 7, 4′-(2-(3-hydroxy-6-((methylsulfonyl)methyl)-4-oxo-4H-pyran-2-yl)ethyl)-N-methyl-[1,1′-biphenyl]-4-carboxamide] |  |  | > 32 | > 32 | > 32 |  | > 32 | > 32 | > 32 | > 32 |
| N[C@@H]1CN(C(=O)c2ccc(C#CC#Cc3ccc(NCc4occc(=O)c4O)cc3)cc2)CC12CC2 [Compound 49] | > 32 | > 32 | > 32 | 1 to 8 (≈ 2.09 to 16.7 µM) | 1 to 8 (≈ 2.09 to 16.7 µM) | 1 to 8 (≈ 2.09 to 16.7 µM) | < 1 |  |  |  |
| CN1CC2CN(C(=O)c3ccc(C#CC#Cc4ccc(NCc5occc(=O)c5O)cc4)cc3)CC2C1 (stereo not shown) [Compound 41] | > 32 | > 32 | 8 to 32 (≈ 16.2 to 64.8 µM) | 1 to 8 (≈ 2.03 to 16.2 µM) | 1 to 8 (≈ 2.03 to 16.2 µM) | 1 to 8 (≈ 2.03 to 16.2 µM) | < 1 |  |  |  |
| O=C(c1ccc(C#CC#Cc2ccc(NCc3occc(=O)c3O)cc2)cc1)N1CCNCC1 [Compound 48] | > 32 | > 32 | 8 to 32 (≈ 17.6 to 70.6 µM) | 1 to 8 (≈ 2.21 to 17.6 µM) | 1 to 8 (≈ 2.21 to 17.6 µM) | 1 to 8 (≈ 2.21 to 17.6 µM) | < 1 |  |  |  |
| O=C(c1ccc(C#CC#Cc2ccc(NCc3occc(=O)c3O)cc2)cc1)N1C[C@H]2C[C@@H]1CO2 [Compound 36] | > 32 | > 32 | > 32 | 1 to 8 (≈ 2.14 to 17.1 µM) | 1 to 8 (≈ 2.14 to 17.1 µM) | 8 to 32 (≈ 17.1 to 68.6 µM) | < 1 |  |  |  |
| O=C(c1ccc(C#CC#Cc2ccc(NCc3occc(=O)c3O)cc2)cc1)N1CCC[C@H]1CO [Compound 50] |  |  |  | 1 to 8 (≈ 2.13 to 17.1 µM) |  | 1 to 8 (≈ 2.13 to 17.1 µM) |  |  |  |  |
| CS(=O)(=O)Cc1cc(=O)c(O)c(CNc2ccc(C#CC#Cc3ccccc3)cc2)o1 [Compound 5, 2-((4-(4-phenylbuta-1,3-diynyl)phenylamino)methyl)-3-hydroxy-6-((methylsulfonyl)methyl)-4H-pyran-4-one] |  |  | > 32 | 1 to 8 (≈ 2.31 to 18.5 µM) | 1 to 8 (≈ 2.31 to 18.5 µM) |  | 1 to 8 (≈ 2.31 to 18.5 µM) | > 32 | > 32 | 8 to 32 (≈ 18.5 to 73.8 µM) |
